The results in this text go back to ChEMBL document CHEMBL1126747, “Multiple copy simultaneous search and construction of ligands in binding sites: application to inhibitors of HIV-1 aspartic proteinase” (J Med Chem, 1993).

Broadly, the pKi is the Ki on a negative log10 scale, so that one unit is a factor of ten. Higher therefore signals a small Ki.

The experiment concerns the target Human immunodeficiency virus type 1 protease (Human immunodeficiency virus 1, UniProt Q72874). In words: Binding affinity against HIV-1 aspartic proteinase was determined.

pKi: −log10 of the molar value. Starred links: 1 amine or outer side, 2 acyl side, 3 side chain; linkers in the order of their positions; H or OH if unused. Non-standard residues stand in square brackets, D forms with d. Residues, ends and D or L forms follow the SMILES beside them. X1 = CC(C)C[C@H](N[*:1])[C@@H](O)C[C@H](C(=O)[*:2])C(C)C Bounds are passed on as bounds.

Turning to `CCCC[C@@H](CN[C@@H](CCCC)C(=O)N[C@@H](CCC(N)=O)C(=O)N[C@@H](CCCNC(=N)N)C(N)=O)NC(=O)[C@@H](NC(=O)[C@@H](NC(C)=O)[C@@H](C)O)[C@@H](C)CC`, the pKi is 6.11.

Consider `CC[C@H](C)[C@H](NC(=O)[C@@H](C[C@H](O)[C@H](CC(C)C)NC(=O)[C@H](CC(N)=O)NC(=O)[C@H](CCC(N)=O)NC(=O)[C@H](CO)NC(=O)[C@@H](N)C(C)C)C(C)C)C(=O)N[C@H](C(=O)O)C(C)C` (H-VSQN[X1]IV-OH), for which the pKi is above 9.00.
